Assay results: US9302999B2, “Substituted triazoles as herbicides” (E. I. DU PONT DE NEMOURS AND COMPANY, priority 2012, dated 2016)

Tests used:
Format in all cases: in vivo
[1] = test system: windgrass (Apera spica-venti); experiment: Test D pre-/postemergence: windgrass
Procedure, shortened: (§1)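 Visual control ratings (0–100) after 14–21 days, controlled environment. Preemergence on silt loam; postemergence on 2–18 cm plants.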

[2] = test system: ryegrass, Italian (Italian ryegrass, Lolium multiflorum); experiment: Test D pre-/postemergence: ryegrass, Italian
Procedure, shortened: as §1

[3] = test system: foxtail, green (green foxtail, Setaria viridis); experiment: Test C pre-/postemergence: foxtail, green
Procedure, shortened: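 Preemergence on seeds in loam/sand, postemergence on 2–18 cm (1–4-leaf) plants in peat-based medium; compounds in non-phytotoxic solvent with surfactant. After 13–15 days in greenhouse, visual rating versus controls, 0 (no effect) to 100 (complete control).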

rice (Oryza sativa) = experiment: Test B flooded paddy: rice; conditions: Flood, applied to paddy water at 2-leaf stage, visually evaluated after 13 to 15 days
Procedure, shortened: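 Plants were grown to the 2-leaf stage, then pots were flooded to 3 cm above the soil and compounds were applied directly into the paddy water. Water depth was held for the whole test; after 13 to 15 days in a greenhouse, injury was visually rated against untreated controls (0 = no effect, 100 = complete control).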

[4] = test system: bromegrass, downy (downy bromegrass, Bromus tectorum); experiment: Test D pre-/postemergence: bromegrass, downy
Source text: (§2) Seeds of plant species selected from bluegrass (annual bluegrass, Poa annua), blackgrass (Alopecurus myosuroides), canarygrass (Phalaris minor), chickweed (common chickweed, Stellaria media), galium (catchweed bedstraw, Galium aparine), bromegrass, downy (downy bromegrass, Bromus tectorum), field poppy (Papaver rhoeas), field violet (Viola arvensis), foxtail, green (green foxtail, Setaria viridis), deadnettle (henbit deadnettle, Lamium amplexicaule), ryegrass, Italian (Italian ryegrass, Lolium multiflorum), kochia (Kochia scoparia), lambsquarters (Chenopodium album), oilseed rape (Brassica napus), pigweed (Amaranthus retroflexus), Russian thistle (Salsola iberica), chamomile (scentless chamomile, Matricaria inodora), speedwell (bird's-eye speedwell, Veronica persica), barley, spring (spring barley, Hordeum vulgare), wheat, spring (spring wheat, Triticum aestivum), buckwheat, wild (wild buckwheat, Polygonum convolvulus), mustard, wild (wild mustard, Sinapis arvensis), oat, wild (wild oat, Avena fatua), radish, wild (wild radish, Raphanus raphanistrum), windgrass (Apera spica-venti), barley, winter (winter barley, Hordeum vulgare), and wheat, winter (winter wheat, Triticum aestivum) were planted into a silt loam soil and treated preemergence with test chemicals formulated in a non-phytotoxic solvent mixture which included a surfactant. At the same time, these same crop and weed species were planted in pots containing the planting medium comprising spaghnum peat moss, vermiculite, wetting agent and starter nutrients and treated with postemergence applications of the test chemicals formulated in the same manner. Plants ranged in height from 2 to 18 cm (1- to 4-leaf stage).
(§3) Treated plants and controls were maintained in a controlled growth environment for 14 to 21 days after which time all species were compared to controls and visually evaluated. Plant response ratings, summarized in Table D, are based on a scale of 0 to 100 where 0 is no effect and 100 is complete control. A dash (-) response means no test result.

[5] = test system: barley, winter (winter barley, Hordeum vulgare); experiment: Test D pre-/postemergence: barley, winter
Procedure, shortened: as §1

[6] = test system: blackgrass (Alopecurus myosuroides); experiment: Test D pre-/postemergence: blackgrass
Procedure, shortened: as §1

[7] = test system: field violet (Viola arvensis); experiment: Test D pre-/postemergence: field violet
Source text: as §2, §3

[8] = Postemergence, 62 g ai/ha, scale 0 to 100 (0 no effect, 100 complete control)
[9] = Postemergence, 125 g ai/ha, scale 0 to 100, 0 no effect, 100 complete control
[10] = Postemergence, 250 g ai/ha, scale 0 to 100 (0 no effect, 100 complete control)
[11] = Postemergence, 16 g ai/ha, scale 0 to 100
[12] = Postemergence, 31 g ai/ha, scale 0 to 100
[13] = Postemergence, 31 g ai/ha, scale 0 to 100 (0 no effect, 100 complete control)
[14] = Postemergence, 250 g ai/ha, scale 0 to 100
[15] = Preemergence, 31 g ai/ha, scale of 0 to 100, 0 is no effect, 100 is complete control
[16] = Preemergence, 62 g ai/ha, scale of 0 to 100, 0 is no effect, 100 is complete control
[17] = Preemergence, 125 g ai/ha, scale 0 to 100, 0 no effect, 100 complete control
[18] = Preemergence, 250 g ai/ha, scale 0 to 100, 0 no effect, 100 complete control
[19] = Postemergence, 8 g ai/ha, scale 0 to 100
[20] = Preemergence, 16 g ai/ha, scale 0 to 100 (0 no effect, 100 complete control)
[21] = Preemergence, 31 g ai/ha, scale 0 to 100 (0 no effect, 100 complete control)
[22] = Preemergence, 62 g ai/ha, scale 0 to 100
[23] = Preemergence, 125 g ai/ha, scale 0 to 100

Cc1nn(-c2ccnc(C(F)(F)F)c2)nc1Cc1ccnc(C(F)(F)F)c1 [Compound 137]
Plant response rating: Windgrass [1, 8]: 40
Plant response rating: Windgrass [1, 9]: 50
Plant response rating: Windgrass [1, 10]: 80
Plant response rating, Windgrass [1, 11]: 10
Plant response rating, Windgrass [1, 12]: 20
Plant response rating: Ryegrass, Italian [2, 13]: 10
Plant response rating: Ryegrass, Italian [2, 8]: 25
Plant response rating: Ryegrass, Italian [2, 9]: 35
Plant response rating: Ryegrass, Italian [2, 10]: 40
Plant response rating, Ryegrass, Italian [2, 11]: 0
Plant response rating, Foxtail, Green [3, 13]: 80
Plant response rating, Foxtail, Green [3, 8]: 85
Plant response rating, Foxtail, Green [3, 9]: 95
Plant response rating, Foxtail, Green [3, 14]: 95
Plant response rating, Rice (0 to 100 scale, 0 is no effect, 100 is complete control) (rice (Oryza sativa); 250 g ai/ha): 40
Plant response rating: Bromegrass, Downy [4, 13]: 15
Plant response rating: Bromegrass, Downy [4, 8]: 20
Plant response rating: Bromegrass, Downy [4, 9]: 30
Plant response rating: Bromegrass, Downy [4, 10]: 40
Plant response rating, Bromegrass, Downy [4, 11]: 5
Plant response rating: Barley, Winter [5, 13]: 5
Plant response rating: Barley, Winter [5, 8]: 5
Plant response rating: Barley, Winter [5, 9]: 1
Plant response rating: Barley, Winter [5, 10]: 10
Plant response rating, Barley, Winter [5, 11]: 0
Plant response rating: Blackgrass [6, 13]: 30
Plant response rating: Blackgrass [6, 8]: 50
Plant response rating: Blackgrass [6, 9]: 70
Plant response rating: Blackgrass [6, 10]: 80
Plant response rating, Blackgrass [6, 11]: 10
Plant response rating: Field Violet [7, 13]: 70
Plant response rating: Field Violet [7, 8]: 85
Plant response rating: Field Violet [7, 9]: 90
Plant response rating: Field Violet [7, 10]: 95
Plant response rating, Field Violet [7, 11]: 50

Fc1ccc(-n2nc(Cc3ccnc(C(F)(F)F)c3)c(OCC(F)(F)F)n2)cc1 [Compound 142]
Plant response rating, Foxtail, Green [3, 13]: 100
Plant response rating, Foxtail, Green [3, 8]: 100
Plant response rating, Foxtail, Green [3, 9]: 100
Plant response rating, Foxtail, Green [3, 14]: 100
Plant response rating, Foxtail, Green [3, 15]: 90
Plant response rating, Foxtail, Green [3, 16]: 90
Plant response rating, Foxtail, Green [3, 17]: 90
Plant response rating, Foxtail, Green [3, 18]: 90
Plant response rating, Rice (0 to 100 scale, 0 is no effect, 100 is complete control) (rice (Oryza sativa); 250 g ai/ha): 60

Cc1nn(-c2ccc(F)c(F)c2)nc1Oc1ccnc(C(F)(F)F)c1 [Compound 145]
Plant response rating: Windgrass [1, 8]: 60
Plant response rating: Windgrass [1, 9]: 80
Plant response rating, Windgrass [1, 19]: 5
Plant response rating, Windgrass [1, 11]: 10
Plant response rating, Windgrass [1, 12]: 35
Plant response rating: Ryegrass, Italian [2, 13]: 10
Plant response rating: Ryegrass, Italian [2, 8]: 15
Plant response rating: Ryegrass, Italian [2, 9]: 30
Plant response rating, Ryegrass, Italian [2, 19]: 0
Plant response rating, Ryegrass, Italian [2, 11]: 0
Plant response rating, Foxtail, Green [3, 13]: 98
Plant response rating, Foxtail, Green [3, 8]: 100
Plant response rating, Foxtail, Green [3, 9]: 100
Plant response rating, Foxtail, Green [3, 14]: 100
Plant response rating, Foxtail, Green [3, 15]: 90
Plant response rating, Foxtail, Green [3, 16]: 90
Plant response rating, Foxtail, Green [3, 17]: 90
Plant response rating, Foxtail, Green [3, 18]: 90
Plant response rating, Rice (0 to 100 scale, 0 is no effect, 100 is complete control) (rice (Oryza sativa); 250 g ai/ha): 80
Plant response rating: Bromegrass, Downy [4, 13]: 5
Plant response rating: Bromegrass, Downy [4, 8]: 10
Plant response rating: Bromegrass, Downy [4, 9]: 10
Plant response rating, Bromegrass, Downy [4, 19]: 5
Plant response rating, Bromegrass, Downy [4, 11]: 5
Plant response rating: Barley, Winter [5, 13]: 5
Plant response rating: Barley, Winter [5, 8]: 10
Plant response rating: Barley, Winter [5, 9]: 20
Plant response rating, Barley, Winter [5, 19]: 0
Plant response rating, Barley, Winter [5, 11]: 5
Plant response rating: Blackgrass [6, 13]: 20
Plant response rating: Blackgrass [6, 8]: 25
Plant response rating: Blackgrass [6, 9]: 30
Plant response rating, Blackgrass [6, 19]: 5
Plant response rating, Blackgrass [6, 11]: 20
Plant response rating: Field Violet [7, 13]: 75
Plant response rating: Field Violet [7, 8]: 95
Plant response rating: Field Violet [7, 9]: 95
Plant response rating, Field Violet [7, 19]: 70
Plant response rating, Field Violet [7, 11]: 80

Cc1nn(-c2ccc(F)c(C(F)(F)F)c2)nc1Oc1ccnc(C(F)(F)F)c1 [Compound 147]
Plant response rating: Windgrass [1, 8]: 50
Plant response rating: Windgrass [1, 9]: 75
Plant response rating, Windgrass [1, 11]: 15
Plant response rating, Windgrass [1, 12]: 25
Plant response rating, Windgrass [1, 20]: 0
Plant response rating, Windgrass [1, 21]: 60
Plant response rating, Windgrass [1, 22]: 100
Plant response rating, Windgrass [1, 23]: 100
Plant response rating: Ryegrass, Italian [2, 13]: 10
Plant response rating: Ryegrass, Italian [2, 8]: 15
Plant response rating: Ryegrass, Italian [2, 9]: 35
Plant response rating, Ryegrass, Italian [2, 11]: 5
Plant response rating, Ryegrass, Italian [2, 20]: 0
Plant response rating, Ryegrass, Italian [2, 21]: 5
Plant response rating, Ryegrass, Italian [2, 22]: 15
Plant response rating, Ryegrass, Italian [2, 23]: 30
Plant response rating, Foxtail, Green [3, 15]: 95
Plant response rating, Foxtail, Green [3, 16]: 95
Plant response rating, Foxtail, Green [3, 17]: 95
Plant response rating, Foxtail, Green [3, 18]: 95
Plant response rating, Rice (0 to 100 scale, 0 is no effect, 100 is complete control) (rice (Oryza sativa); 250 g ai/ha): 50
Plant response rating: Bromegrass, Downy [4, 13]: 5
Plant response rating: Bromegrass, Downy [4, 8]: 15
Plant response rating: Bromegrass, Downy [4, 9]: 50
Plant response rating, Bromegrass, Downy [4, 11]: 5
Plant response rating, Bromegrass, Downy [4, 20]: 0
Plant response rating, Bromegrass, Downy [4, 21]: 5
Plant response rating, Bromegrass, Downy [4, 22]: 10
Plant response rating, Bromegrass, Downy [4, 23]: 15
Plant response rating: Barley, Winter [5, 13]: 20
Plant response rating: Barley, Winter [5, 8]: 25
Plant response rating: Barley, Winter [5, 9]: 30
Plant response rating, Barley, Winter [5, 11]: 15
Plant response rating, Barley, Winter [5, 20]: 0
Plant response rating, Barley, Winter [5, 21]: 0
Plant response rating, Barley, Winter [5, 22]: 5
Plant response rating, Barley, Winter [5, 23]: 15
Plant response rating: Blackgrass [6, 13]: 25
Plant response rating: Blackgrass [6, 8]: 30
Plant response rating: Blackgrass [6, 9]: 60
Plant response rating, Blackgrass [6, 11]: 15
Plant response rating, Blackgrass [6, 20]: 0
Plant response rating, Blackgrass [6, 21]: 0
Plant response rating, Blackgrass [6, 22]: 30
Plant response rating, Blackgrass [6, 23]: 40
Plant response rating: Field Violet [7, 13]: 95
Plant response rating: Field Violet [7, 8]: 100
Plant response rating: Field Violet [7, 9]: 90
Plant response rating, Field Violet [7, 11]: 95
Plant response rating, Field Violet [7, 20]: 75
Plant response rating, Field Violet [7, 21]: 100
Plant response rating, Field Violet [7, 22]: 95
Plant response rating, Field Violet [7, 23]: 100

CCc1nn(-c2ccc(F)cc2)nc1Oc1ccnc(C(F)(F)F)c1 [Compound 166]
Plant response rating, Rice (0 to 100 scale, 0 is no effect, 100 is complete control) (rice (Oryza sativa); 125 g ai/ha): 80

CCCc1nn(-c2ccc(C(F)(F)F)c(F)c2)nc1Oc1ccnc(C(F)(F)F)c1 [Compound 185]
Plant response rating, Rice (0 to 100 scale, 0 is no effect, 100 is complete control) (rice (Oryza sativa); 250 g ai/ha): 65

CCOc1nn(-c2ccc(Br)cc2)nc1Cc1ccnc(C(F)(F)F)c1 [Compound 189]
Plant response rating, Rice (0 to 100 scale, 0 is no effect, 100 is complete control) (rice (Oryza sativa); 125 g ai/ha): 35
